Values of other authors, collected in patent US8986418B1, “Method and system for agricultural fertigation” (priority 2008, dated 2015).
Read-outs that look alike come from different tables or passages of the source.

[K+] [K^+]
Solubility with anion CO3^−2: S (S means soluble (over 5,000 ppm))
Solubility with anion Cl: S (S means soluble (over 5,000 ppm))
Solubility with anion HCO3^−: S (S means soluble (over 5,000 ppm))
Solubility with anion NO3^−: S (S means soluble (over 5,000 ppm))
Solubility with anion OH^−: S (S means soluble (over 5,000 ppm))
Solubility with anion PO4^−3: S (S means soluble (over 5,000 ppm))
Solubility with anion SO4^−2: S (S means soluble (over 5,000 ppm))
Solubility with anion S^−2: S (S means soluble (over 5,000 ppm))

[H+] [H^+]
Solubility with anion CO3^−2: CO2
Solubility with anion Cl: S (S means soluble (over 5,000 ppm))
Solubility with anion HCO3^−: S (S means soluble (over 5,000 ppm))
Solubility with anion NO3^−: S (S means soluble (over 5,000 ppm))
Solubility with anion PO4^−3: S (S means soluble (over 5,000 ppm))
Solubility with anion SO4^−2: S (S means soluble (over 5,000 ppm))

[Mn+2] [Mn^+2]
Solubility with anion CO3^−2: I (I means insoluble (<20 ppm))
Solubility with anion Cl: S (S means soluble (over 5,000 ppm))
Solubility with anion NO3^−: S (S means soluble (over 5,000 ppm))
Solubility with anion OH^−: I (I means insoluble (<20 ppm))
Solubility with anion PO4^−3: I (I means insoluble (<20 ppm))
Solubility with anion SO4^−2: S (S means soluble (over 5,000 ppm))
Solubility with anion S^−2: I (I means insoluble (<20 ppm))

[Fe+2] [Fe^+2]
Solubility with anion CO3^−2: VSS (VSS means very slightly soluble (20-2,000 ppm))
Solubility with anion CO3^−2 (listed as Fe^+3): I (I means insoluble (<20 ppm))
Solubility with anion Cl: S (S means soluble (over 5,000 ppm))
Solubility with anion HCO3^−: SS (SS means slightly soluble (2,000 to 5,000 ppm))
Solubility with anion HCO3^− (listed as Fe^+3): I (I means insoluble (<20 ppm))
Solubility with anion NO3^−: S (S means soluble (over 5,000 ppm))
Solubility with anion OH^−: VSS (VSS means very slightly soluble (20-2,000 ppm))
Solubility with anion OH^− (listed as Fe^+3): I (I means insoluble (<20 ppm))
Solubility with anion PO4^−3: I (I means insoluble (<20 ppm))
Solubility with anion SO4^−2: S (S means soluble (over 5,000 ppm))
Solubility with anion S^−2: I (I means insoluble (<20 ppm))

[Mg+2] [Mg^+2]
Solubility with anion CO3^−2: VSS (VSS means very slightly soluble (20-2,000 ppm))
Solubility with anion Cl: S (S means soluble (over 5,000 ppm))
Solubility with anion HCO3^−: S (S means soluble (over 5,000 ppm))
Solubility with anion NO3^−: S (S means soluble (over 5,000 ppm))
Solubility with anion OH^−: I (I means insoluble (<20 ppm))
Solubility with anion PO4^−3: I (I means insoluble (<20 ppm))
Solubility with anion SO4^−2: S (S means soluble (over 5,000 ppm))
